In patent US9056843B2, “Trifluoromethyl-oxadiazole derivatives and their use in the treatment of disease” (NOVARTIS AG, priority 2011, dated 2015):
pIC50: −log10 of the molar value.

How the values were obtained:
Type in all cases: biochemical
[1] = target: Human recombinant full length HDAC1 (Homo sapiens (Human), UniProt Q13547); test: Test 3: HDAC1 assay; details: substrate 5 μM acetyl-Gly-Ala-Lys(acetyl)-AMC
Outline: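 Baculovirus-expressed full-length human HDAC1 with 5 μM acetyl-Gly-Ala-Lys(acetyl)-AMC substrate, developed with trypsin 15 min at room temperature.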

Human recombinant HDAC4 = Human recombinant HDAC4 (Homo sapiens (Human), UniProt P56524); test: Test 2: HDAC4 assay (fluorogenic substrate, 5 μM acetyl-Gly-Ala-Lys(ε-trifluoroacetyl)-AMC); details: Test 2 (values without asterisk)
Outline: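 After the reaction, bovine trypsin (300 nM solution) was added for 15 min at RT to develop the signal; fluorescence read at 360/450 nm. No-enzyme background subtracted; IC50 from 4-parameter logistic fit of dose-response curves.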

[2] = target: Human recombinant full length HDAC6 (Homo sapiens (Human), UniProt Q9UBN7); test: Test 4: HDAC6 assay; details: Test 4; substrate 5 μM acetyl-Gly-Ala-Lys(acetyl)-AMC
Outline: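 Baculovirus-expressed full-length recombinant human HDAC6 with 5 μM acetyl-Gly-Ala-Lys(acetyl)-AMC substrate, developed with trypsin 15 min at room temperature.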

Sequence of Human recombinant full length HDAC1 (Q13547 whole entry): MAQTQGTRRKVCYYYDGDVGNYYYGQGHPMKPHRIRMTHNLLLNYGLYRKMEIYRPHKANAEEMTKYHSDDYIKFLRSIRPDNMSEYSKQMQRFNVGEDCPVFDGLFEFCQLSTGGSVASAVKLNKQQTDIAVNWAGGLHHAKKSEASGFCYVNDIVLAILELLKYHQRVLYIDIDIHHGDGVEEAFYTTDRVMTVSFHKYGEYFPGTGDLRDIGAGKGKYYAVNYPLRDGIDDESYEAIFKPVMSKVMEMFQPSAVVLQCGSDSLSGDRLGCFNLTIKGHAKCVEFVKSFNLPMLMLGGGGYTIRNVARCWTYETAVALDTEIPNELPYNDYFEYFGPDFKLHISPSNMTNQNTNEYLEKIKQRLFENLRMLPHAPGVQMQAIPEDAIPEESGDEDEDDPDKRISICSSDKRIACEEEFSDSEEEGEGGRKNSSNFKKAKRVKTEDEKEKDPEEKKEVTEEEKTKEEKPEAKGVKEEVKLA
Sequence of Human recombinant HDAC4 (P56524 2-1084): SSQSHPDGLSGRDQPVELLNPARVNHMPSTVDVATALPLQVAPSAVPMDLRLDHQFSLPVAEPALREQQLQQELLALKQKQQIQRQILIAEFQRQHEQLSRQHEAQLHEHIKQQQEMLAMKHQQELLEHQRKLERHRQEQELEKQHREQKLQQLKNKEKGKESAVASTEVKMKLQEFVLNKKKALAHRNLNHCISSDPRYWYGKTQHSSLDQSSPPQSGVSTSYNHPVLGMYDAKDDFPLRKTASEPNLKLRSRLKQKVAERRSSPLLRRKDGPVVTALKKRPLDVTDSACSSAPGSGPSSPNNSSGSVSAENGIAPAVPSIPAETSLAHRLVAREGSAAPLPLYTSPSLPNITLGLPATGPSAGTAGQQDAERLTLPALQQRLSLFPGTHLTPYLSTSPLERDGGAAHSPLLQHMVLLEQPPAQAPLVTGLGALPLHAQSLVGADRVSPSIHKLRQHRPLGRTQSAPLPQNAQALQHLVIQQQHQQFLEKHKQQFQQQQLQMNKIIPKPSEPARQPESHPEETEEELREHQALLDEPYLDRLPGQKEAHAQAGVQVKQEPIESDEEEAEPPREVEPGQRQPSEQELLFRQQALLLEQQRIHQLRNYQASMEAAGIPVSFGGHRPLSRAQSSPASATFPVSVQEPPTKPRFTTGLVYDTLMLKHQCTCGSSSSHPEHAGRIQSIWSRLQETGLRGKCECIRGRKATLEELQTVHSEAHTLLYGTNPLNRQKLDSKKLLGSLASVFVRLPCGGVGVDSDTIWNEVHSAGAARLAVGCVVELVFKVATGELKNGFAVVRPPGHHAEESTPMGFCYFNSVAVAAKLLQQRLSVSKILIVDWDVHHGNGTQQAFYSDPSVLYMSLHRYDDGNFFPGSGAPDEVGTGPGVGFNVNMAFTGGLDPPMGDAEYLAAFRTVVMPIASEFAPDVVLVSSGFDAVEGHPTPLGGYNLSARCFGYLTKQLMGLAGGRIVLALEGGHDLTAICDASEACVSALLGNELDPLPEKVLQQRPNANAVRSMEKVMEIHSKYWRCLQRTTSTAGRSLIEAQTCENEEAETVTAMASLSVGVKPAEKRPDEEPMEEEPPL
Sequence of Human recombinant full length HDAC6 (Q9UBN7 whole entry): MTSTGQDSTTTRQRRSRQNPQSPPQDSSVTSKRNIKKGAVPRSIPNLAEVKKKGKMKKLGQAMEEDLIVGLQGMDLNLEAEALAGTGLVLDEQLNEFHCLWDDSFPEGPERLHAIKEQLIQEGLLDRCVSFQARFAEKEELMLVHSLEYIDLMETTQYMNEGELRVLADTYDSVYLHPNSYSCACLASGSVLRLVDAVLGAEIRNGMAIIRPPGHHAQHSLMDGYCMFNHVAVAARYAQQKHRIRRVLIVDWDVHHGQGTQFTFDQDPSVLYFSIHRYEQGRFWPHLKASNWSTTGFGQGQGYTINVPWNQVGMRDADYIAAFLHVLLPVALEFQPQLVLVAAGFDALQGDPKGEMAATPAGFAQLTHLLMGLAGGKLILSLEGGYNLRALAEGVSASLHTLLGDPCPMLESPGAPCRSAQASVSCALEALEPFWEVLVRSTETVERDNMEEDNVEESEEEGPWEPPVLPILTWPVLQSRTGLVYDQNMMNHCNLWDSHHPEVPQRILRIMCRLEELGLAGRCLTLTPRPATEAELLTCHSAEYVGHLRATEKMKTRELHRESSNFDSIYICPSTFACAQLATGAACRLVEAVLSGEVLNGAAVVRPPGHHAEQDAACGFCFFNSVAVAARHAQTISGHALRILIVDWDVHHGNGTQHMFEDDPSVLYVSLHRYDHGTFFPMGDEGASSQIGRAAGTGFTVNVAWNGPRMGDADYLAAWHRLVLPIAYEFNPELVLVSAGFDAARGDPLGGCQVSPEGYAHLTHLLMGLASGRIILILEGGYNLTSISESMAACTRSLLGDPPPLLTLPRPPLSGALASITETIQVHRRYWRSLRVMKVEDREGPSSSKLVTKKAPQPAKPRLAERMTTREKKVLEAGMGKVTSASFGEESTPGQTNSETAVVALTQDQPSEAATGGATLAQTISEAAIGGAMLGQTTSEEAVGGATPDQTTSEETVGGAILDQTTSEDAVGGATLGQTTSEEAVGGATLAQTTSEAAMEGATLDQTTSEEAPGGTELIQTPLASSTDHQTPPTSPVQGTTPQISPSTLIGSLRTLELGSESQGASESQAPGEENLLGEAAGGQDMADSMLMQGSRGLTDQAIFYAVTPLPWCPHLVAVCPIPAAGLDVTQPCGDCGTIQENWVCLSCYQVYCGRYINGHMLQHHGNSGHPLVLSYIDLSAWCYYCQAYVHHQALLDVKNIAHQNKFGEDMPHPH

Row | SMILES | pIC50 [1] | pIC50 (Human recombinant HDAC4) | pIC50 [2]
1 | CC(C)[C@@H](CN(C)C)NC(=O)c1ccc(-c2noc(C(F)(F)F)n2)cc1 [Example 83, (S)—N-(1-(dimethylamino)-3-methylbutan-2-yl)-4-(5-(trifluoromethyl)-1,2,4-oxadiazol-3-yl)benzamide] | < 5.00 | 7.82 | < 5.00
2 | CC(C)[C@H](CN(C)C)NC(=O)c1ccc(-c2noc(C(F)(F)F)n2)cc1 [Example 84, (R)—N-(1-(dimethylamino)-3-methylbutan-2-yl)-4-(5-(trifluoromethyl)-1,2,4-oxadiazol-3-yl)benzamide] | < 5.00 | 6.31 | < 5.00
3 | CC(C)C[C@H](CN(C)C)NC(=O)c1ccc(-c2noc(C(F)(F)F)n2)cc1 [Example 85, (R)—N-(1-(dimethylamino)-4-methylpentan-2-yl)-4-(5-(trifluoromethyl)-1,2,4-oxadiazol-3-yl)benzamide] | < 5.00 | 7.32 | < 5.00
4 | O=C(N[C@@H]1CCNC1)c1ccc(-c2noc(C(F)(F)F)n2)cc1 [Example 86, (R)—N-(pyyrrolidin-3-yl)-4-(5-(trifluoromethyl)-1,2,4-oxadiazol-3-yl)benzamide] | < 5.00 | 7.59 | < 5.00
5 | C[C@H](CN(C)C)NC(=O)c1ccc(-c2noc(C(F)(F)F)n2)cc1F [Example 88, (R)—N-(1-(dimethylamino)propan-2-yl)-2-fluoro-4-(5-(trifluoromethyl)-1,2,4-oxadiazol-3-yl)benzamide] | < 5.00 | 7.92 | 5.33
6 | CC(C)[C@H](CN(C)C)NC(=O)c1ccc(-c2noc(C(F)(F)F)n2)cc1F [Example 89, (R)—N-(1-(dimethylamino)-3-methylbutan-2-yl)-2-fluoro-4-(5-(trifluoromethyl)-1,2,4-oxadiazol-3-yl)benzamide] | < 5.00 | 7.35 | < 5.00
7 | Cc1cc(NC(=O)c2ccc(-c3noc(C(F)(F)F)n3)cc2F)cc(C)n1 [Example 90, N-(2,6-dimethylpyridin-4-yl)-2-fluoro-4-(5-(trifluoromethyl)-1,2,4-oxadiazol-3-yl)benzamide] | < 5.00 | 6.36 | 5.60
8 | CC(CO)NC(=O)c1ccc(-c2noc(C(F)(F)F)n2)cc1F (stereo not drawn) [Example 91, 2-fluoro-N-(1-hydroxyypropan-2-yl)-4-(5-(trifluoromethyl)-1,2,4-oxadiazol-3-yl)benzamide] | < 5.00 | 6.30 | 5.29
9 | CN(C)C[C@@H](Cc1ccccc1)NC(=O)c1ccc(-c2noc(C(F)(F)F)n2)cc1 [Example 92, (R)—N-(1-(dimethylamino)-3-phenylpropan-2-yl)-4-(5-(trifluoromethyl)-1,2,4-oxadiazol-3-yl)benzamide] | < 5.17 | 7.07 | 5.40
10 | CN(C)C[C@H](Cc1ccccc1)NC(=O)c1ccc(-c2noc(C(F)(F)F)n2)cc1 [Example 93, (S)—N-(1-(dimethylamino)-3-phenylpropan-2-yl)-4-(5-(trifluoromethyl)-1,2,4-oxadiazol-3-yl)benzamide] | < 5.00 | 6.72 | 5.31
11 | CC(CN(C)C)N(C)C(=O)c1ccc(-c2noc(C(F)(F)F)n2)cc1 (stereo not drawn) [Example 94, N-(1-(dimethylamino)propan-2-yl)-N-methyl-4-(5-(trifluoromethyl)-1,2,4-oxadiazol-3-yl)benzamide] | < 5.00 | 6.28 | < 5.00
12 | O=C(N[C@@H]1CCNC1)c1ccc(-c2noc(C(F)(F)F)n2)cc1F [Example 95, (R)-2-fluoro-N-(pyyrrolidin-3-yl)-4-(5-(trifluoromethyl)-1,2,4-oxadiazol-3-yl)benzamide] | < 5.00 | 6.80 | 5.16
13 | CN(C)CCNS(=O)(=O)c1ccc(-c2noc(C(F)(F)F)n2)cc1 [Example 98, N-(2-(dimethylamino)ethyl)-4-(5-(trifluoromethyl)-1,2,4-oxadiazol-3-yl)benzenesulfonamide] | < 5.00 | 6.44 | 5.19
14 | CN(C)CCN(C)S(=O)(=O)c1ccc(-c2noc(C(F)(F)F)n2)cc1 [Example 99, N-(2-(dimethylamino)ethyl)-N-methyl-4-(5-(trifluoromethyl)-1,2,4-oxadiazol-3-yl)benzenesulfonamide] | < 5.00 | 5.87 | 5.00
15 | O=S(=O)(N[C@@H]1CCNC1)c1ccc(-c2noc(C(F)(F)F)n2)cc1 [Example 102, (R)—N-(pyrrolidin-3-yl)-4-(5-(trifluoromethyl)-1,2,4-oxadiazol-3-yl)benzenesulfonamide] | < 5.00 | 5.49 | < 5.00
16 | Cc1ccccc1NS(=O)(=O)c1ccc(-c2noc(C(F)(F)F)n2)cc1 [Example 103, N-o-tolyl-4-(5-trifluoromethyl-[1,2,4]oxadiazol-3-yl)-benzenesulfonamide] | < 5.00 | 7.10 | 6.15

Row | SMILES | pIC50 [1] | pIC50 (Human recombinant HDAC4) | pIC50 [2]
17 | O=S(=O)(Nc1ccccc1Cl)c1ccc(-c2noc(C(F)(F)F)n2)cc1 [Example 104, N-(2-chlorophenyl)-4-(5-(trifluoromethyl)-1,2,4-oxadiazol-3-yl)benzenesulfonamide] | < 5.00 | 6.08 | 6.11
18 | Cc1cccc(NS(=O)(=O)c2ccc(-c3noc(C(F)(F)F)n3)cc2)c1 [Example 105, N-m-tolyl-4-(5-(trifluoromethyl)-1,2,4-oxadiazol-3-yl)benzenesulfonamide] | 5.44 | 6.57 | 6.33
19 | O=S(=O)(Nc1cccc(Cl)c1)c1ccc(-c2noc(C(F)(F)F)n2)cc1 [Example 107, N-(3-chlorophenyl)-4-(5-(trifluoromethyl)-1,2,4-oxadiazol-3-yl)benzenesulfonamide] | 5.21 | 6.10 | 6.34
20 | Cc1ccc(NS(=O)(=O)c2ccc(-c3noc(C(F)(F)F)n3)cc2)cc1 [Example 108, N-p-tolyl-4-(5-(trifluoromethyl)-1,2,4-oxadiazol-3-yl)benzenesulfonamide] | 5.30 | 7.03 | 6.13
21 | O=S(=O)(Nc1ccc(F)cc1)c1ccc(-c2noc(C(F)(F)F)n2)cc1 [Example 109, N-(4-fluorophenyl)-4-(5-(trifluoromethyl)-1,2,4-oxadiazol-3-yl)benzenesulfonamide] | < 5.00 | 7.01 | 6.36
22 | O=S(=O)(Nc1ccc(Cl)cc1)c1ccc(-c2noc(C(F)(F)F)n2)cc1 [Example 110, N-(4-chlorophenyl)-4-(5-(trifluoromethyl)-1,2,4-oxadiazol-3-yl)benzenesulfonamide] | < 5.00 | 6.70 | 5.70
23 | O=S(=O)(Nc1ccccc1F)c1ccc(-c2noc(C(F)(F)F)n2)cc1 [Example 111, N-(2-fluorophenyl)-4-(5-(trifluoromethyl)-1,2,4-oxadiazol-3-yl)benzenesulfonamide] | < 5.00 | 6.54 | 6.24
24 | CN(C)CCCN(C)S(=O)(=O)c1ccc(-c2noc(C(F)(F)F)n2)cc1 [Example 112, N-(3-(dimethylamino)propyl)-N-methyl-4-(5-(trifluoromethyl)-1,2,4-oxadiazol-3-yl)benzenesulfonamide] | < 5.00 | 6.09 | 5.04
25 | CN(C)CCCNS(=O)(=O)c1ccc(-c2noc(C(F)(F)F)n2)cc1 [Example 113, N-(3-(dimethylamino)propyl)-4-(5-(trifluoromethyl)-1,2,4-oxadiazol-3-yl)benzenesulfonamide] | < 5.00 | 6.52 | 5.21
26 | CN(C)S(=O)(=O)c1ccc(-c2noc(C(F)(F)F)n2)cc1 [Example 114, N,N-dimethyl-4-(5-(trifluoromethyl)-1,2,4-oxadiazol-3-yl)benzenesulfonamide] | < 5.00 | 6.20 | 5.04
27 | CN1CCC(CNS(=O)(=O)c2ccc(-c3noc(C(F)(F)F)n3)cc2)C1 (stereo not drawn) [Example 115, N-((1-methylpyrrolidin-3-yl)methyl)-4-(5-(trifluoromethyl)-1,2,4-oxadiazol-3-yl)benzenesulfonamide] | < 5.00 | 5.57 | < 5.00
28 | O=S(=O)(NCCCO)c1ccc(-c2noc(C(F)(F)F)n2)cc1 [Example 116, N-(3-hydroxypropyl)-4-(5-(trifluoromethyl)-1,2,4-oxadiazol-3-yl)benzenesulfonamide] | < 5.00 | 6.80 | 5.51
29 | CN(C)C[C@H](Cc1ccccc1)NC(=O)c1ccc(-c2noc(C(F)(F)F)n2)cc1F [Example 117, (S)—N-(1-(dimethylamino)-3-phenylpropan-2-yl)-2-fluoro-4-(5-(trifluoromethyl)-1,2,4-oxadiazol-3-yl)benzamide] | 5.17 | 6.96 | 5.82
30 | CN(C)C[C@@H](Cc1ccccc1)NC(=O)c1ccc(-c2noc(C(F)(F)F)n2)cc1F [Example 118, (R)—N-(1-(dimethylamino)-3-phenylpropan-2-yl)-2-fluoro-4-(5-(trifluoromethyl)-1,2,4-oxadiazol-3-yl)benzamide] | < 5.00 | 6.66 | 5.33
31 | CN(C)CC(C)(C)NC(=O)c1ccc(-c2noc(C(F)(F)F)n2)cc1 [Example 119, N-(1-(dimethylamino)-2-methylpropan-2-yl)-4-(5-(trifluoromethyl)-1,2,4-oxadiazol-3-yl)benzamide] | < 5.00 | 7.44 | < 5.00
